Patent US7361681B2, “Method of treating amytrophic lateral sclerosis using melatonin” (SYGNIS Bioscience GmbH & Co. KG, priority 2003, dated 2008)
Several values for one entry are separate records, joined by “and”; a condition that tells them apart may be missing. Equal entries are not always repeated.

Experiments:
ALS patients = test: pilot program of chronic high-dose melatonin in ALS patients; type: in vivo, human
Text: Three ALS patients with an estimated onset of disease 2-4 yr previously, were included in a pilot program in Göttingen, set up to explore potential effects and side-effects of chronic high-dose melatonin in this condition. Intraindividual follow-up (upon entering the study, and after 1, 2, 6, 9 and 13 months of treatment thus far) included physical examination/clinical rating scales (ALS functional rating scale, ALSFRS), pulmonary function test, EMG-NCV, routine laboratory parameters, psychological rating scales, as well as magnetic resonance imaging and MR spectroscopy. Patients received 30-60 mg of melatonin as an oral slow release formulation in the late evening. In addition, they continued their “regular medication” in the morning and at noon (RIUZOLE® 50-100 mg, vitamins C and E, creatine, […]).

[1] = cited from earlier work
[2] = 30-60 mg melatonin oral slow release in the late evening, up to 13 months

Procedure for SODG93A-transgenic mice: Rotarod failure is defined to start when mice are no longer able to stay in the rotarod for more than 300 sec (=early disease state).
Shown are days after score 1 (abnormal hindlimb reflex or tremor in at least one extremity or asymmetrical gait) to score 4 (endpoint criteria/death).
Melatonin was continuously applied via drinking water (0.5 mg/ml of water containing 1% of ethanol to enable a saturated solution of melatonin) starting on day 28 of life and continued until death. The vehicle control received water containing 1% of ethanol.

## COc1ccc2[nH]cc(CCNC(C)=O)c2c1 [melatonin, N-acetyl-5-methoxytryptamine]
ALS patients; [2]
  side effects reported or detected: No side effects
  signs of fatigue: no signs of fatigue
ALS patients; 30-60 mg melatonin oral slow release in the late evening, up to 13 months, plus regular medication
  tolerability over the entire observation period: well tolerated
ALS patients; 30-60 mg melatonin oral slow release nightly
  clinical laboratory parameters (blood cell count, electrolytes, liver enzymes, creatinine, CRP etc.) during melatonin treatment: did not show alterations
ALS patients; three patients, 30-60 mg melatonin oral slow release nightly
  clinical rating scale (ALSFRS) one year later: 22 and 11 and 20
ALS patients; three patients, baseline
  clinical rating scale (ALSFRS) at the start of the trial: 34 and 25 and 31
SODG93A-transgenic mice; 0.5 mg/ml in drinking water with 1% ethanol, from day 28 of life until death
  survival and course of disease (rotarod performance, progression of paresis, weight loss): significant improvement
SODG93A-transgenic mice; 0.5 mg/ml in drinking water, application of several months
  adverse effects of systemic melatonin: No adverse effects
SODG93A-transgenic mice; SODG93A mice, n=9-12 per group, FIG. 1
  days from rotarod failure (no longer able to stay more than 300 sec) to death, versus vehicle: significantly more
SODG93A-transgenic mice; SODG93A mice, n=9-12 per group, FIG. 2
  days from clinical score 1 to score 4 (endpoint criteria/death), versus vehicle: significantly more
[1]; in vivo
  crossing of the blood-brain barrier: readily crosses
[1]; slow release preparations
  duration of high plasma levels: about 6 hr
